Test results as given in ChEMBL document CHEMBL2203139, “Synthetic bicyclic iminosugar derivatives fused thiazolidin-4-one as new potential HIV-RT inhibitors” (Bioorg Med Chem Lett, 2012).

Molecular target: Human immunodeficiency virus type 1 reverse transcriptase (Human immunodeficiency virus 1, UniProt Q72547)
Test: Inhibition of HIV1 reverse transcriptase incubated for 1 hr by colorimetric assay

IC50 [µM]	SMILES
10.2	O=C1C[S+]([O-])[C@H]2[C@H](O)[C@H](O)[C@H](O)CN12 (some centres not stated)
13	O=C1CS[C@H]2[C@H](O)[C@H](O)[C@H](O)CN12
19	O=C1CS[C@@H]2[C@H](O)[C@H](O)[C@H](O)CN12
1.74	O=C1C(O)S[C@H]2[C@H](O)[C@H](O)[C@H](O)CN12 (some centres not stated)
5.2	O=C1S[C@@H]2[C@H](O)[C@H](O)[C@H](O)CN2C1=O
4.22	O=C1S[C@H]2[C@H](O)[C@H](O)[C@H](O)CN2C1=O
2.45	O=C1C[S+]([O-])[C@@H]2[C@H](O)[C@H](O)[C@H](O)CN12 (some centres not stated)
